Test results reported in paper PMC7240875 (Integrative Cancer Therapies, 2018).

Key:
Type in all cases: cell-based
[1] = target: T1, NAD(P)H:quinone oxidoreductase-1 (NQO1) (Homo sapiens, UniProt P15559); assay: NQO1 activity; details: KKU100, read-out: % inhibition at 4.55 μM
[2] = target: T1, NAD(P)H:quinone oxidoreductase-1 (NQO1); assay: single-concentration NQO1 activity screen; details: read-out: % inhibition at 4.55 μM
[3] = target: T1, NAD(P)H:quinone oxidoreductase-1 (NQO1); assay: NQO1 activity; details: KKU100, read-out: % inhibition at 4.55 μM; remark: listed apart in the source

T1 sequence (P15559 whole entry): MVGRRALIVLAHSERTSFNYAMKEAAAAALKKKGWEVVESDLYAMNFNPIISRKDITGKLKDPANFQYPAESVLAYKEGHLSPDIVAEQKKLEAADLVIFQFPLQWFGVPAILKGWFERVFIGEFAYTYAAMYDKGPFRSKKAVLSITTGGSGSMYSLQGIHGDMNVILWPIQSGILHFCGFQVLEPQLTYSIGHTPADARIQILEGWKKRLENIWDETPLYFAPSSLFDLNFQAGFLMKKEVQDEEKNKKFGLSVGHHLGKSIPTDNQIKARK

Row | Compound | inhibition at 4.55 µM [1] | inhibition at 4.55 µM [3] | other results
1 | COc1cc2ccc(=O)oc2cc1O [scopoletin] | 77.4% | – | –
2 | O=c1cc(-c2ccc(O)c(O)c2)oc2cc(O)cc(O)c12 [luteolin] | – | – | inhibition at 4.55 µM [2]: 55%

Now from value to molecule, other results behind:

Row | inhibition at 4.55 µM [1] | inhibition at 4.55 µM [3] | Compound | other results
3 | 63.5% | – | O=c1ccc2ccc(O)cc2o1 [umbelliferone] | –
4 | – | 41.8% | O=c1ccc2ccccc2o1 [coumarin] | –
5 | – | 34.9% | O=c1ccc2cc(O)c(O)cc2o1 [aesculetin] | –
